PubChem BioAssay (NCI)
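The compound was tested at five concentrations on cells cultured in 96-well plates, with a 48-hour exposure period. TGI marks complete inhibition of growth.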

What was measured:
Assay in all cases: NCI-60 cell line screen, 48 h
HOP-92 NSCLC = test system: HOP-92 NSCLC
HCC-2998 colon = test system: HCC-2998 colon
TK-10 renal = test system: TK-10 renal
RXF 393 renal = test system: RXF 393 renal
SW-620 colon = test system: SW-620 colon
SK-MEL-28 melanoma = test system: SK-MEL-28 melanoma
CAKI-1 renal = test system: CAKI-1 renal
NCI-H460 lung = test system: NCI-H460 lung
IGROV1 ovarian = test system: IGROV1 ovarian
SR leukemia = test system: SR leukemia
SK-OV-3 ovarian = test system: SK-OV-3 ovarian
UO-31 renal = test system: UO-31 renal
OVCAR-8 ovarian = test system: OVCAR-8 ovarian
HOP-62 NSCLC = test system: HOP-62 NSCLC
OVCAR-3 ovarian = test system: OVCAR-3 ovarian
SK-MEL-2 melanoma = test system: SK-MEL-2 melanoma
OVCAR-4 ovarian = test system: OVCAR-4 ovarian
SF-268 CNS = test system: SF-268 CNS
SF-539 CNS = test system: SF-539 CNS
M14 melanoma = test system: M14 melanoma
SK-MEL-5 melanoma = test system: SK-MEL-5 melanoma
ACHN renal = test system: ACHN renal
OVCAR-5 ovarian = test system: OVCAR-5 ovarian
MCF7 breast = test system: MCF7 breast
K-562 leukemia = test system: K-562 leukemia
A549 NSCLC = test system: A549 NSCLC
NCI-H226 lung = test system: NCI-H226 lung
HT29 colon = test system: HT29 colon
SF-295 CNS = test system: SF-295 CNS
CCRF-CEM leukemia = test system: CCRF-CEM leukemia
BT-549 breast = test system: BT-549 breast
RPMI-8226 leukemia = test system: RPMI-8226 leukemia
786-0 renal = test system: 786-0 renal
U251 CNS = test system: U251 CNS
A498 renal = test system: A498 renal
NCI-H23 lung = test system: NCI-H23 lung
KM12 colon = test system: KM12 colon
MDA-MB-231 breast = test system: MDA-MB-231 breast
NCI-H522 lung = test system: NCI-H522 lung
HS 578T breast = test system: HS 578T breast
SN12C renal = test system: SN12C renal
UACC-62 melanoma = test system: UACC-62 melanoma
MOLT-4 leukemia = test system: MOLT-4 leukemia
COLO 205 colon = test system: COLO 205 colon
SNB-75 CNS = test system: SNB-75 CNS
UACC-257 melanoma = test system: UACC-257 melanoma
MALME-3M melanoma = test system: MALME-3M melanoma
PC-3 prostate = test system: PC-3 prostate
HCT-15 colon = test system: HCT-15 colon
DU-145 prostate = test system: DU-145 prostate
MDA-MB-435 = test system: MDA-MB-435
NCI/ADR-RES ovarian = test system: NCI/ADR-RES ovarian
HCT-116 colon = test system: HCT-116 colon
T-47D breast = test system: T-47D breast
MDA-N = test system: MDA-N
EKVX NSCLC = test system: EKVX NSCLC
HL-60(TB) leukemia = test system: HL-60(TB) leukemia
LOX IMVI melanoma = test system: LOX IMVI melanoma
SNB-19 CNS = test system: SNB-19 CNS

Measured: TGI

CC(=O)N1N=C(c2ccc3ccccc3c2O)CC1C(=O)c1ccco1 (stereo not given)
52.8 µM: SK-MEL-2 melanoma
24.4 µM: MOLT-4 leukemia
57.7 µM: M14 melanoma
18.6 µM: SR leukemia
57.8 µM: NCI/ADR-RES ovarian
24.9 µM: CCRF-CEM leukemia
44.8 µM: KM12 colon
85 µM: RPMI-8226 leukemia
67.6 µM: COLO 205 colon
55.5 µM: HCC-2998 colon
83.8 µM: SF-539 CNS
62.6 µM: UACC-62 melanoma
41 µM: K-562 leukemia
76.6 µM: NCI-H522 lung
not listed: EKVX NSCLC | HL-60(TB) leukemia | LOX IMVI melanoma | SNB-19 CNS
> 100 µM: all other assays above

CCn1nc2c3c(ncn3C(C)(C)O2)c1=O
not listed: OVCAR-8 ovarian | OVCAR-3 ovarian | SF-539 CNS | SNB-75 CNS
> 100 µM: all other assays above
